The subject of this assay is M. tuberculosis H37Rv growth inhibition with meropenem. As to the kind of experiment: dose response, H37Rv, with and without meropenem (AID 434987).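 Also: growth over 7 days at 37 °C before Alamar Blue read on day 9.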
Setting [1] is: M. tuberculosis H37Rv growth inhibition, measured here: IC50 without meropenem.
The mark [2] stands for this setting: M. tuberculosis H37Rv growth inhibition, measured here: IC90 without meropenem.
Where [3] appears, read: measured here: IC90 with meropenem.

Drawing on PubChem BioAssay AID434987 (Southern Research Specialized Biocontainment Screening …, 2010), this text covers IC50 and IC90 for 22 compounds.

The structures appear in SMILES notation. The source made the active and inactive calls. No rule for the calls is given here. Bounds are passed on as bounds.

Take `COc1ccc(OC(=O)c2cccc([N+](=O)[O-])c2)c(C(=O)/C=C/c2cccs2)c1`: the IC50 (as a rule, the concentration at which inhibition is half-maximal) was 27.5 µM. The IC50 under setting [1] was found to be 68.3 µM. For the same compound, under setting [2], the IC90 (as a rule, the concentration at which the effect reaches the 90% level) is more than 100 µM. This compound came in with an IC90 under setting [3] of more than 100 µM.

On to `Cc1ccc(Nc2nc(N)nc(CC#N)n2)cc1`, for which the IC50 is 61.3 µM (inactive). This compound also came in with an IC50 under setting [1] of 75.6 µM. This compound also came in with a concentration for an effect of 90% (IC90) under setting [2] of more than 100 µM. This compound yielded an IC90 under setting [3] of 92.7 µM.

On to `CN(c1ccc(OCC(=O)Nc2ccc3[nH]c(=O)[nH]c3c2)cc1)S(=O)(=O)c1ccc(Cl)cc1`, for which the IC50 is > 100 µM (inactive). Also, the IC50 under setting [1] is more than 100 µM. Also, the IC90 under setting [2] was more than 100 µM. Under setting [3], the IC90 was more than 100 µM.

In the case of `CCCN1C(=O)c2ccc(C(=O)Nc3cc(C)on3)cc2C1=O`, the IC50 is > 100 µM (inactive). This compound also registered an IC50 under setting [1] of more than 100 µM. Under setting [2], this compound returned an IC90 of more than 100 µM. The IC90 under setting [3] is more than 100 µM.

`CCN(CC)S(=O)(=O)c1ccc(N/N=C(\C)c2ccc(OC)cc2O)nc1`: the IC50 is 1.07 µM. This compound gave an IC50 under setting [1] of 5.71 µM. Further, the IC90 under setting [2] stood at 11.3 µM. The compound further showed an IC90 under setting [3] of 10.4 µM.

As for `C[C@H]1C=CC(=O)O[C@H]1c1ccccc1`, the IC50 was 21 µM (inactive). Also, the IC50 under setting [1] came to 43.7 µM. Under setting [2], the IC90 was 60.6 µM. The compound further showed an IC90 under setting [3] of 49.5 µM.

With `COc1cc2nc(N3CCN(C(=O)OCc4ccccc4)[C@H](C(=O)NC(C)(C)C)C3)nc(N)c2cc1OC`, the IC50 is 64.5 µM (inactive). Under setting [1], the IC50 came to 65 µM. Under setting [2], this compound gave an IC90 of 92.7 µM. The same compound registered an IC90 under setting [3] of 84 µM.

With `CCc1ccccc1NC(=O)CNC(=O)c1cc(C2CC2)nn1-c1ccccc1`, the IC50 was > 100 µM (inactive). In addition, the half-inhibitory concentration (IC50) under setting [1] is more than 100 µM. Moreover, the IC90 under setting [2] is more than 100 µM. Besides, the IC90 under setting [3] is more than 100 µM.

In the case of `COc1ccc(C(=O)Nc2nc3ccc(OC)cc3s2)cc1`, the IC50 is 21.2 µM. Under setting [1], this compound showed a 50% inhibitory concentration (IC50) of 65.1 µM. For the same compound, the IC90 under setting [2] is more than 100 µM. Further, under setting [3], the IC90 is more than 100 µM.

Take `Cc1cc(C)c2sc(N(CCCN(C)C)C(=O)COc3ccc(Cl)cc3)nc2c1`: the IC50 was 36.6 µM (inactive). Under setting [1], this compound registered an IC50 of 53.6 µM. This compound also registered an IC90 under setting [2] of 80.2 µM. The compound also registered an IC90 under setting [3] of more than 100 µM.

Consider `COc1cc(NC(=O)c2ccc(CNc3c(N4CCCC4)c(=O)c3=O)cc2)cc(OC)c1OC`, for which the IC50 was 23.9 µM. Besides, the IC50 under setting [1] is more than 100 µM. Under setting [2], this compound registered an IC90 of more than 100 µM. The IC90 under setting [3] was more than 100 µM.

For `CCN(CC)c1ccc(CN2CCCCCC2)cc1`, the IC50 was 43.6 µM (inactive). The IC50 under setting [1] came out at 48.1 µM. The compound also yielded an IC90 under setting [2] of more than 100 µM. The compound further came in with an IC90 under setting [3] of 49.4 µM.

As for `O=C(CC(=O)c1ccccc1)Nc1ccc2c(c1)OCCO2`, the IC50 is 37.2 µM (inactive). Further, the IC50 under setting [1] turned out to be 78.9 µM. Under setting [2], this compound registered an IC90 of more than 100 µM. Under setting [3], this compound gave an IC90 of more than 100 µM.

In the case of `O=C(CCN1CCOCC1)c1ccc(N2CCCCC2)cc1`, the IC50 is 14 µM (inactive). For the same compound, the IC50 under setting [1] stood at 27.5 µM. Moreover, the IC90 under setting [2] turned out to be 37.3 µM. Under setting [3], the IC90 turned out to be 72.7 µM.

Turning to `CC1CCN(C(=S)NC(=O)c2ccccc2)CC1`, the IC50 is 12 µM. Further, the IC50 under setting [1] was found to be 40.7 µM. The compound also displayed an IC90 under setting [2] of 77.6 µM. This compound also displayed an IC90 under setting [3] of 13.6 µM.

Regarding `O=C(c1cc2c(s1)CCCC2)n1cccn1`, the IC50 is 93.4 µM (inactive). The same compound yielded an IC50 under setting [1] of more than 100 µM. For the same compound, under setting [2], the IC90 was more than 100 µM. Under setting [3], this compound registered an IC90 of more than 100 µM.

Regarding `CC(C)c1ccc(/C=C/C(=O)NC2CCCCC2)cc1`, the IC50 is 38.2 µM. The compound further registered an IC50 under setting [1] of more than 100 µM. The compound also returned an IC90 under setting [2] of more than 100 µM. For the same compound, the IC90 under setting [3] was more than 100 µM.

As to `COc1ccc(NC(C)C(=O)N/N=C/c2ccc([N+](=O)[O-])s2)cc1` (stereo not drawn), the IC50 is 2.17 µM (inactive). Further, the IC50 under setting [1] is 3.12 µM. The compound further displayed an IC90 under setting [2] of 4.8 µM. Under setting [3], this compound displayed an IC90 of 4.79 µM.

For the compound `OCCCc1cn(-c2ccccc2)c2ccccc12`, the IC50 was 12.4 µM. Moreover, the IC50 under setting [1] is more than 100 µM. Further, under setting [2], the concentration for an effect of 90% (IC90) was more than 100 µM. In addition, the IC90 under setting [3] was 60.8 µM.

On to `CCc1cc2c(-c3ccccc3)cc(=O)oc2cc1OC(C)C(C)=O` (stereo not drawn), for which the IC50 is 45.6 µM (inactive). The compound also had an IC50 under setting [1] of 47.4 µM. The compound also gave an IC90 under setting [2] of 53.8 µM. This compound also showed an IC90 under setting [3] of 48.5 µM.

With `COc1c(F)c(F)c(C(=O)Nc2c(C)cc(Br)cc2C)c(F)c1F`, the IC50 is 4.58 µM. Further, the IC50 under setting [1] is more than 100 µM. For the same compound, under setting [2], the IC90 is more than 100 µM. Under setting [3], this compound yielded an IC90 of more than 100 µM.

With `Cn1c(=O)c(C(=O)COC(=O)c2cc(C3CC3)nc3ccccc23)c(N)n(Cc2ccccc2)c1=O`, the IC50 was > 100 µM (inactive). Under setting [1], the IC50 was more than 100 µM. Moreover, the IC90 under setting [2] was more than 100 µM. Besides, the IC90 under setting [3] is more than 100 µM.
